The results in this text go back to patent US20240246964A1 (Arbutus Biopharma Corporation, priority 2021, published 2024).

The target of the test is human PD-L1 (Homo sapiens (Human), UniProt Q9NZQ7). Nature of the test: T cell activation luciferase reporter cell culture system (T Cell Activation Assay). In kind it is cell-based. The following applies: luciferase reporter assay; PD-L1 aAPC/CHO-K1 cells with PD-1 effector Jurkat T cells. (In general: In a reporter assay the amount or activity of a reporter protein is the signal.)

pEC50: −log10 of the molar value.

Sequence of human PD-L1 (Q9NZQ7 19-290): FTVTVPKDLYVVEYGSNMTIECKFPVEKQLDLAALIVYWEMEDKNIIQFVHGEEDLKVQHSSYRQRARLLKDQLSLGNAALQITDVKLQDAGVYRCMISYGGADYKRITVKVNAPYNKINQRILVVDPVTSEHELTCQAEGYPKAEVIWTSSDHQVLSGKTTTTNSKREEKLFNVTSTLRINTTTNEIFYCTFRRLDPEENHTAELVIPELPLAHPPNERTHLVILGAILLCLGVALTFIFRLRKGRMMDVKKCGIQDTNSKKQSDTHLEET

In general, pEC50 refers to −log10 of the EC50, conventionally taken in molar units. A higher pEC50 goes with a low EC50. `COc1cc(-c2nccc(-c3cccc4c3CC[C@@H]4Oc3nc(OC)c(CNC[C@H](C)O)cc3C(F)(F)F)c2Cl)ccc1CNC[C@H](C)O` [Example 270, (S)-1-(((6-(((S)-4-(3-Chloro-2-(4-((((S)-2-hydroxypropyl)amino)methyl)-3-methoxyphenyl)pyridin-4-yl)-2,3-dihydro-1H-inden-1-yl)oxy)-2-methoxy-5-(trifluoromethyl)pyridin-3-yl)methyl)amino)propan-2-ol] showed a negative logarithm of the EC50 (pEC50) of 7.07. `COc1cc(-c2nccc(-c3cccc(-c4ccc(CNC5CCN(C(C)=O)CC5)c(OC)n4)c3Cl)c2C)ccc1CNC1CCN(C(C)=O)CC1` [Example 271, 1-(4-(((6-(3-(2-(4-(((1-Acetylpiperidin-4-yl)amino)methyl)-3-methoxyphenyl)-3-methylpyridin-4-yl)-2-chlorophenyl)-2-methoxypyridin-3-yl)methyl)amino)piperidin-1-yl)ethan-1-one] had a pEC50 of 6.74. This pEC50 is 0.33 log units lower than that of the compound before. `COC(=O)CCN1CCc2cc(-c3nccc(-c4cccc(-c5ccc(CNC[C@H](C)O)c(OC)n5)c4Cl)c3Cl)cc(OC)c2C1` [Example 272, Methyl (S)-3-(6-(3-chloro-4-(2-chloro-3-(5-(((2-hydroxypropyl)amino)methyl)-6-methoxypyridin-2-yl)phenyl)pyridin-2-yl)-8-methoxy-3,4-dihydroisoquinolin-2(1H)-yl)propanoate]: the negative-log EC50 (pEC50) is 7.05.

`COC(=O)CCN1CCc2cc(-c3nccc(-c4cccc(-c5ccc(CN6CC7(CNC(=O)C7)C6)c(OC)n5)c4Cl)c3Cl)cc(OC)c2C1` [Example 273, Methyl 3-(6-(3-chloro-4-(2-chloro-3-(6-methoxy-5-((7-oxo-2,6-diazaspiro[3.4]octan-2-yl)methyl)pyridin-2-yl)phenyl)pyridin-2-yl)-8-methoxy-3,4-dihydroisoquinolin-2(1H)-yl)propanoate] had a negative-log EC50 (pEC50) of 6.94.

For `COc1cc(-c2nccc(-c3cccc(-c4ccc(CNC[C@H](C)O)c(OC)n4)c3Cl)c2C)ccc1CNC[C@H](C)O` [Example 274, (S)-1-(((6-(2-Chloro-3-(2-(4-((((S)-2-hydroxypropyl)amino)methyl)-3-methoxyphenyl)-3-methylpyridin-4-yl)-phenyl)-2-methoxypyridin-3-yl)-methyl)-amino)propan-2-ol], the pEC50 was 6.94.

In the case of `COc1cc(-c2nccc(-c3cccc(-c4ccc(CN5CC6(CNC(=O)C6)C5)c(OC)n4)c3Cl)c2F)ccc1CN1CC2(CNC(=O)C2)C1` [Example 324, 2-(4-(4-(2-chloro-3-(6-methoxy-5-((7-oxo-2,6-diazaspiro[3.4]octan-2-yl)methyl)pyridin-2-yl)phenyl)-3-fluoropyridin-2-yl)-2-methoxybenzyl)-2,6-diazaspiro[3.4]octan-7-one], the pEC50 was 7.50. `COc1cc(-c2nccc(-c3cccc(-c4ccc(CNCC5CCOCC5)c(OC)n4)c3Cl)c2Cl)ccc1CNCC1CCOCC1` [Example 330, 1-(6-(2-Chloro-3-(3-chloro-2-(3-methoxy-4-((((tetrahydro-2H-pyran-4-yl)methyl)amino)methyl)phenyl)pyridin-4-yl)phenyl)-2-methoxypyridin-3-yl)-N-((tetrahydro-2H-pyran-4-yl)methyl)methanamine] had a pEC50 of 7.13. Take `CNCc1ccc(-c2nccc(-c3cccc(-c4ccc(CNC)c(OC)n4)c3Cl)c2C)cc1OC` [Example 334, 1-(6-(2-Chloro-3-(2-(3-methoxy-4-((methylamino)methyl)phenyl)-3-methylpyridin-4-yl)phenyl)-2-methoxypyridin-3-yl)-N-methylmethanamine]: the pEC50 was 7.41.

Turning to `COc1cc(-c2nccc(-c3cccc(-c4ccc(CNC[C@@H]5CCC(=O)N5)c(OC)n4)c3Cl)c2Cl)ccc1[C@H](C)N` [Example 335, (S)-5-((((6-(3-(2-(4-((S)-1-Aminoethyl)-3-methoxyphenyl)-3-chloropyridin-4-yl)-2-chlorophenyl)-2-methoxypyridin-3-yl)methyl)amino)methyl)pyrrolidin-2-one], the pEC50 was 7.30. Turning to `COc1nc(-c2ccnc(-c3cccc4c3CC[C@@H]4Oc3nc(OC)c(CN4CC5(CNC(=O)C5)C4)cc3C(F)(F)F)c2Cl)ccc1CN1CC2(CNC(=O)C2)C1` [Example 336, (S)-2-((3′-Chloro-6-methoxy-2′-(1-((6-methoxy-5-((7-oxo-2,6-diazaspiro[3.4]octan-2-yl)methyl)-3-(trifluoromethyl)pyridin-2-yl)oxy)-2,3-dihydro-1H-inden-4-yl)-[2,4′-bipyridin]-5-yl)methyl)-2,6-diazaspiro[3.4]octan-7-one], the negative-log EC50 (pEC50) was 7.02. On to `COc1cc(-c2nccc(-c3cccc(-c4ccc(CNC5CCN(C(=O)C6CC6)CC5)c(OC)n4)c3Cl)c2Cl)ccc1CNC1CCN(C(=O)C2CC2)CC1` [Example 345, (4-(((6-(2-Chloro-3-(3-chloro-2-(4-(((1-(cyclopropanecarbonyl)piperidin-4-yl)amino)methyl)-3-methoxyphenyl)pyridin-4-yl)phenyl)-2-methoxypyridin-3-yl)methyl)amino)piperidin-1-yl)(cyclopropyl)methanone], for which the pEC50 was 7.49. Turning to `COc1cc(-c2nccc(-c3cccc(-c4ccc(CNC5CCN(C(=O)C(C)C)CC5)c(OC)n4)c3Cl)c2Cl)ccc1CNC1CCN(C(=O)C(C)C)CC1` [Example 346, 1-(4-(((6-(2-Chloro-3-(3-chloro-2-(4-(((1-isobutyrylpiperidin-4-yl)amino)methyl)-3-methoxyphenyl)pyridin-4-yl)phenyl)-2-methoxypyridin-3-yl)methyl)amino)piperidin-1-yl)-2-methylpropan-1-one], the pEC50 is 7.15. Next, `COc1cc(-c2nccc(-c3cccc(-c4ccc(CNC5CCN(C(=O)C(C)C)CC5)c(OC)n4)c3Cl)c2Cl)cc(F)c1CNC1CCN(C(=O)C(C)C)CC1` [Example 347, 1-(4-(((6-(2-Chloro-3-(3-chloro-2-(3-fluoro-4-(((1-isobutyrylpiperidin-4-yl)amino)methyl)-5-methoxyphenyl)pyridin-4-yl)phenyl)-2-methoxypyridin-3-yl)methyl)amino)piperidin-1-yl)-2-methylpropan-1-one]: 7.16. The compound `COc1cc(-c2nccc(-c3cccc(-c4ccc(CNC5CCOCC5)c(OC)n4)c3Cl)c2Cl)cc(F)c1CNC1CCOCC1` [Example 348, N-((6-(2-Chloro-3-(3-chloro-2-(3-fluoro-5-methoxy-4-(((tetrahydro-2H-pyran-4-yl)amino)methyl)phenyl)pyridin-4-yl)phenyl)-2-methoxypyridin-3-yl)methyl)tetrahydro-2H-pyran-4-amine] gave a pEC50 of 7.54. Next, `COc1cc(-c2nccc(-c3cccc(-c4ccc(CNC5CCS(=O)(=O)CC5)c(OC)n4)c3Cl)c2Cl)cc(F)c1CNC1CCS(=O)(=O)CC1` [Example 349, 4-(((6-(2-Chloro-3-(3-chloro-2-(4-(((1,1-dioxidotetrahydro-2H-thiopyran-4-yl)amino)methyl)-3-fluoro-5-methoxyphenyl)pyridin-4-yl)phenyl)-2-methoxypyridin-3-yl)methyl)amino)tetrahydro-2H-thiopyran 1,1-dioxide]: 7.42.
